Tests used:
[1] = MRI-H-121 mouse xenograft study, tolerability; assay type: in vivo, mice
Experimental: Tumor bearing animals were randomly allocated into 2 groups (N=10/group): PM14 administered at 1.25 mg/kg and placebo. All treatments were intravenously administered once a week for 3 consecutive weeks (days 0, 7 and 14).
Tumor volume and animal body weights were measured 2-3 times per week starting from the first day of treatment.
Treatment tolerability was assessed by monitoring body weight evolution, clinical signs of systemic toxicity, as well as evidences of local damage in the injection site.
Treatments producing >20% lethality and/or 20% net body weight loss were considered toxic. Animals were euthanized when their tumors reached ca. 2,000 mm^3 and/or severe necrosis was seen.

[2] = test system: patients with advanced solid tumors; experiment: Phase I dose-escalating study, safety and dose limiting toxicities; assay type: in vivo; conditions: for maximum tolerated dose: 3-hour i.v. infusion
Source text: Primary Study Objectives • Dose escalation phase: To identify the dose limiting toxicities (DLTs), and to determine the maximum tolerated dose (MTD) and the recommended dose (RD) of PM14 administered intravenously (i.v.) on two days (Day 1 and Day 8) or on Day 1 only, both every three weeks (q3wk) over three hours to patients with advanced solid tumors.
First-in-human, open-label, dose-finding, phase I trial, using a classical 3+3 design followed by a continual reassessment method (CRM) (see Dose Escalation Schedule, below).
Patients will be included in cohorts of a minimum of three or six patients to receive PM14 at successively increasing dose levels, starting at 0.25 mg/m2 for the Days 1 and 8 schedule. For the Day 1 schedule, the starting dose will be 4.5 mg/m^2.
Open-label, dose-escalating, phase I trial of PM14 administered as a 3-hour infusion i.v. every 3 weeks (q3wk) in human patients (pts) with advanced solid tumors, adequate organ function and ECOG PS score of 0-1. Two schedules were explored: Schedule A (Day 1 [D1], Day 8 [D8]) and Schedule B (D1).
Determination of MTD and RD: the MTD will be the lowest dose level explored during dose escalation in which one third or more of evaluable patients develop a DLT in Cycle 1. The CRM could be used to define the RD.
Secondary Endpoints • Safety: patients will be evaluable for safety if they have received at least one partial infusion of PM14. AEs will be graded according to the NCI-CTCAE v.4. Additionally, treatment-related discontinuations and treatment compliance (dose reduction, skipped doses and/or treatment delays due to AEs), will be described. • Pharmacokinetics: PK analyses will be evaluated in plasma and urine by standard non-compartmental analysis (compartmental modeling may be performed if appropriate). Plasma samples for PM14 PK analysis will be obtained in Cycle 1 from all patients, and also in Cycle 2 from patients treated during Step D of the CRM. In addition, the urine produced during Day 1 of Cycle 1 and Cycle 2 will be collected from patients treated during Step D of the CRM. • Pharmacogenetics: the presence or absence of PGt polymorphisms in genes relevant for PM14 disposition (distribution, metabolism and excretion) from a single blood sample collected at any time during the trial (but preferably at the same time as the pre-treatment PK sample on Day 1 of Cycle 1) will be assessed to explain individual variability in main PK parameters. • Pharmacogenomics: this exploratory analysis will be performed in those patients who sign the Informed Consent Form (ICF) for the PGx study. mRNA or protein expression levels of factors involved in DNA repair mechanisms, or related to the mechanism of action of PM14, will be evaluated from available tumor tissue samples obtained at diagnosis or relapse and in cell-free ctDNA. Their mutational status might also be analyzed, if relevant. Their correlation with the clinical response and outcome after treatment will be assessed. • Efficacy: patients will be evaluable for efficacy if they receive at least one complete infusion of PM14 and have at least one clinical or radiological tumor assessment as per RECIST v.1.1 or serum markers, or if they are considered to have failed treatment. Treatment failure will be defined as clinical deterioration, death due to PD or treatment discontinuation due to any treatment-related toxicity before any appropriate tumor assessments have been performed. […]

[3] = Schedule A D1,D8, 3.0 mg/m^2 (n: 9)
[4] = Schedule A D1,D8, <3.0 mg/m^2 (n: 14)
[5] = Schedule A D1,D8, >3.0 mg/m^2 (n: 5)
[6] = Schedule B D1, 4.5 mg/m^2 (n: 6)
[7] = Schedule B D1, 5.6 mg/m^2 (n: 3)

With `COc1c(C)cc2c(c1O)[C@@H]1[C@@H]3[C@@H]4SC[C@]5(N[C@H](CO)Cc6c5[nH]c5ccccc65)C(=O)OC[C@@H](c5c6c(c(C)c(OC(C)=O)c54)OCO6)N3[C@@H](O)[C@H](C2)N1C` [PM14, ECUBECTEDIN] the mortality ([1]; 1.25 mg/kg i.v. days 0, 7 and 14) was “No mortality”, the “mean body weight reduction” value ([1]; Day 16, 1.25 mg/kg i.v. days 0, 7 and 14, reversible) was “ca. −15.0%” and the tolerability ([1]; MRI-H-121 tumor bearing animals, 1.25 mg/kg) was “well tolerated”. The “DLTs at the RDs” value ([2]; 3.0 mg/n^2 D1,D8 (A) and 4.5 mg/n^2 D1 (B)) was “No DL-Ts”, the maximum tolerated dose ([2]; Schedule A (D1, D8 q3wk)) was 4.5 mg/m^2 and the “ALT increase Gr 1-2, (%)” value [2, 3] was “(55.6%)”. The “ALT increase Gr 3, (%)” value [2, 3] was “(11.1%)”, the “AST increase Gr 1-2, (%)” value [2, 3] was “(77.8%)” and the “Anemia Gr 1-2, (%)” value [2, 3] was “(77.8%)”. For the same molecule, the “Anemia Gr 3, (%)” value [2, 3] was “(11.1%)”, the “CPK increase Gr 1-2, (%)” value [2, 3] was “(22.2%)” and the “Diarrhoea Gr 1-2, (%)” value [2, 3] was “(11.1%)”. For the same molecule, the “Nausea Gr 1-2, (%)” value [2, 3] was “(11.1%)”, the “Neutropenia Gr 1-2, (%)” value [2, 3] was “(11.1%)” and the “Neutropenia Gr 3, (%)” value [2, 3] was “(11.1%)”. The “Neutropenia Gr 4, (%)” value [2, 3] was “(11.1%)”, the “Vomiting Gr 1-2, (%)” value [2, 3] was “(11.1%)” and the “Vomiting Gr 3, (%)” value [2, 3] was “(11.1%)”. For the same molecule, the “ALT increase Gr 1-2, (%)” value [2, 4] was “(35.7%)”, the “AST increase Gr 1-2, (%)” value [2, 4] was “(21.4%)” and the “Anemia Gr 1-2, (%)” value [2, 4] was “(85.7%)”. The “CPK increase Gr 1-2, (%)” value [2, 4] was “(42.9%)”, the “Constipation Gr 1-2, (%)” value [2, 4] was “(7.1%)” and the “Decreased appetite Gr 1-2, (%)” value [2, 4] was “(7.1%)”. The “Diarrhoea Gr 1-2, (%)” value [2, 4] was “(14.3%)”, the “Fatigue Gr 1-2, (%)” value [2, 4] was “(28.6%)” and the “Nausea Gr 1-2, (%)” value [2, 4] was “(42.9%)”. For the same molecule, the “Neutropenia Gr 1-2, (%)” value [2, 4] was “(14.3%)”, the “Vomiting Gr 1-2, (%)” value [2, 4] was “(42.9%)” and the “ALT increase Gr 1-2, (%)” value [2, 5] was “(60.0%)”. The “ALT increase Gr 3, (%)” value [2, 5] was “(40.0%)”, the “AST increase Gr 1-2, (%)” value [2, 5] was “(100.0%)” and the “Anemia Gr 1-2, (%)” value [2, 5] was “(80.0%)”. The “Anemia Gr 3, (%)” value [2, 5] was “(20.0%)”, the “Constipation Gr 1-2, (%)” value [2, 5] was “(60.0%)” and the “Decreased appetite Gr 1-2, (%)” value [2, 5] was “(40.0%)”. The “Diarrhoea Gr 1-2, (%)” value [2, 5] was “(20.0%)”, the “Fatigue Gr 1-2, (%)” value [2, 5] was “(40.0%)” and the “Fatigue Gr 3, (%)” value [2, 5] was “(20.0%)”. The “Nausea Gr 1-2, (%)” value [2, 5] was “(80.0%)”, the “Neutropenia Gr 1-2, (%)” value [2, 5] was “(20.0%)” and the “Neutropenia Gr 4, (%)” value [2, 5] was “(40.0%)”. The “Vomiting Gr 1-2, (%)” value [2, 5] was “(60.0%)”, the “recommended dose (RD)” value ([2]; Schedule A, on D1,D8) was 3.0 mg/n^2 and the maximum tolerated dose ([2]; Schedule B (D1 q3wk)) was 5.6 mg/rn^2. The “ALT increase Gr 1-2, (%)” value [2, 6] was “(66.7%)”, the “ALT increase Gr 3, (%)” value [2, 6] was “(33.3%)” and the “AST increase Gr 1-2, (%)” value [2, 6] was “(50.0%)”. The “AST increase Gr 4, (%)” value [2, 6] was “(16.1%)”, the “Anemia Gr 1-2, (%)” value [2, 6] was “(83.3%)” and the “CPK increase Gr 1-2, (%)” value [2, 6] was “(33.3%)”. The “Decreased appetite Gr 1-2, (%)” value [2, 6] was “(16.7%)”, the “Fatigue Gr 1-2, (%)” value [2, 6] was “(50.0%)” and the “Headache Gr 1-2, (%)” value [2, 6] was “(16.7%)”. The “Nausea Gr 1-2, (%)” value [2, 6] was “(50.0%)”, the “Neutropenia Gr 3, (%)” value [2, 6] was “(16.7%)” and the “Neutropenia Gr 4, (%)” value [2, 6] was “(16.7%)”. For the same molecule, the “Vomiting Gr 1-2, (%)” value [2, 6] was “(16.7%)”, the “ALT increase Gr 1-2, (%)” value [2, 7] was “(66.7%)” and the “ALT increase Gr 4, (%)” value [2, 7] was “(33.3%)”. The “AST increase Gr 1-2, (%)” value [2, 7] was “(33.3%)”, the “AST increase Gr 4, (%)” value [2, 7] was “(33.3%)” and the “Anemia Gr 1-2, (%)” value [2, 7] was “(33.3%)”. For the same molecule, the “Anemia Gr 3, (%)” value [2, 7] was “(66.7%)”, the “CPK increase Gr 1-2, (%)” value [2, 7] was “(66.7%)” and the “Fatigue Gr 1-2, (%)” value [2, 7] was “(33.3%)”. The “Febrile neutropenia Gr 4, (%)” value [2, 7] was “(33.3%)”, the “Neutropenia Gr 1-2, (%)” value [2, 7] was “(33.3%)” and the “Neutropenia Gr 3, (%)” value [2, 7] was “(33.3%)”. For the same molecule, the “Neutropenia Gr 4, (%)” value [2, 7] was “(33.3%)”, the “recommended dose (RD)” value ([2]; Schedule B, on D1) was 4.5 mg/n^2 and the “tolerability at the RDs” value ([2]; patients with advanced solid tumors) was “well tolerated”.

From patent US20240277705A1, “DOSAGE REGIMENS FOR ECUBECTEDIN” (PHARMA MAR S.A., priority 2021, published 2024)
